In the supplement of paper PMC12317010:

Test: collision cross section in nitrogen (drift tube, single-field); higher = larger gas-phase ion size
[1] = ion type: [M+H], ion source: APCI, ion mode: Positive
[2] = ion type: [M+H], ion source: ESI, ion mode: Positive
[3] = ion type: [M-H], ion source: ESI, ion mode: Negative
[4] = ion type: [M+Na], ion source: ESI, ion mode: Positive
[5] = ion source: APCI, ion mode: Positive, ion type: [M]+ (permanent cation)
[6] = ion source: ESI, ion mode: Positive, ion type: [M]+ (permanent cation)
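Note: chemical standards at 10 µM analysed by drift tube IMS-QTOF MS in about 3.95 torr nitrogen, mean of duplicate injections differing ≤1%, mass error below 10 ppm.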

collision cross section in nitrogen [1] [Å²]	collision cross section in nitrogen [2] [Å²]	collision cross section in nitrogen [3] [Å²]	SMILES	collision cross section in nitrogen [4] [Å²]	also measured
211.8	211.3	218.2	O=C1OC2(c3ccccc31)c1cc(I)c(O)c(I)c1Oc1c2cc(I)c(O)c1I [C.I. Solvent Red 140]	–	–
–	–	211.8	O=S(=O)(O)c1ccc(N=Nc2cc(S(=O)(=O)O)c3ccccc3c2O)c2ccccc12 [Azorubine]	–	–
157.9	–	155	O=C1C=CC(=O)N1c1cccc(N2C(=O)C=CC2=O)c1 [N,N'-1,3-Phenylenedimaleimide]	–	–
–	–	151.6	CC(C)(C)OC(=O)c1ccccc1C(=O)O [tert-Butyl hydrogen phthalate]	–	–
146.5	–	148.5	COc1ccc(NC(=O)CC(C)=O)cc1 [N-(4-Methoxyphenyl)-3-oxobutanamide]	160.2	–
–	171.5	–	CC(C)(C)[C@H](O)[C@H](Cc1ccc(Cl)cc1)n1cncn1 [Paclobutrazol]	189.4	–
–	–	154.9	CC(C)C(=O)Nc1ccc([N+](=O)[O-])c(C(F)(F)F)c1 [Flutamide]	–	–

More lines, now with the values behind:

SMILES	collision cross section in nitrogen [1] [Å²]	collision cross section in nitrogen [2] [Å²]	collision cross section in nitrogen [3] [Å²]	collision cross section in nitrogen [4] [Å²]	also measured
Nc1ccc(Oc2ccc(N)cc2)cc1 [4,4'-Oxydianiline]	167.4	160.7	–	–	collision cross section in nitrogen (ion type: [M+], ion source: APCI, ion mode: Positive): 146.6 Å²
CC1CN1P(=O)(N1CC1C)N1CC1C (centres undefined) [Metepa]	142.5	143.2	–	159.9	–
Oc1cc(O)cc(O)c1 [1,3,5-Trihydroxybenzene dihydrate]	–	–	121.6	–	–
N#C/N=C1\SCCN1Cc1ccc(Cl)nc1 [Thiacloprid]	–	159.6	154.5	174.2	–
COc1ccc(CC#N)cc1 [4-Methoxyphenylacetonitrile]	127.3	–	–	–	–
Cc1cc2c3c(c1)C(c1ccccc1)=N[C@@H](NC(=O)c1ccncc1)C(=O)N3CC2 [CI-1018]	201.9	200.9	195	210.1	–
Nc1cc(N)cc(C(=O)O)c1 [3,5-Diaminobenzoic acid]	–	–	136.6	–	–
CCNc1cc2[o+]c3cc(NCC)c(C)cc3c(-c3ccccc3C(=O)OCC)c2cc1C [Rhodamine 6G]	–	–	–	–	collision cross section in nitrogen [5]: 218.3 Å²; collision cross section in nitrogen [6]: 218.9 Å²
CCN(CC)c1ccc(C=NN(c2ccccc2)c2ccccc2)cc1 [4-[(Diphenylhydrazinylidene)methyl]-N,N-diethylaniline]	189.8	200.7	–	–	–
CCCCCCCCCCCCCCCCCC[N+](C)(C)C [N,N,N-Trimethyloctadecan-1-aminium chloride]	–	–	–	–	collision cross section in nitrogen [5]: 200.2 Å²; collision cross section in nitrogen [6]: 200.7 Å²
CC(C)CC(=O)C1C(=O)c2ccccc2C1=O [2-Isovaleryl-1,3-indanedione]	–	–	154.2	–	–
CCCN(C1CCN(C(=O)C2CCNCC2)CC1)[C@@H]1CCc2ccc(OC)cc2C1	209	199.1	–	201	–
CCOC(=O)C(SP(=S)(OC)OC)c1ccccc1 (centres undefined) [Phenthoate]	–	–	–	175.1	–
CCCCOCCOCCO [2-(2-Butoxyethoxy)ethanol]	–	–	–	141.5	–
C[N+](C)(C)Cc1ccccc1 [Benzyltrimethylammonium chloride]	–	–	–	–	collision cross section in nitrogen [6]: 131.9 Å²
CCCCCCCCCCCCN1CCCC1=O [1-Dodecyl-2-pyrrolidinone]	–	176.3	–	176.6	–
